From ChEMBL document CHEMBL1126362, “Episulfide inhibitors of lipoxygenase” (Bioorg Med Chem Lett, 1992) come the findings set out here.

By Ki is commonly meant the equilibrium dissociation constant of an inhibitor or competing ligand from its target. Low readings indicate tighter binding, high ones weaker binding.

For this assay, the target named is T1, Seed linoleate 13S-lipoxygenase-1 (Glycine max, UniProt P08170).
T1 sequence (P08170 whole entry): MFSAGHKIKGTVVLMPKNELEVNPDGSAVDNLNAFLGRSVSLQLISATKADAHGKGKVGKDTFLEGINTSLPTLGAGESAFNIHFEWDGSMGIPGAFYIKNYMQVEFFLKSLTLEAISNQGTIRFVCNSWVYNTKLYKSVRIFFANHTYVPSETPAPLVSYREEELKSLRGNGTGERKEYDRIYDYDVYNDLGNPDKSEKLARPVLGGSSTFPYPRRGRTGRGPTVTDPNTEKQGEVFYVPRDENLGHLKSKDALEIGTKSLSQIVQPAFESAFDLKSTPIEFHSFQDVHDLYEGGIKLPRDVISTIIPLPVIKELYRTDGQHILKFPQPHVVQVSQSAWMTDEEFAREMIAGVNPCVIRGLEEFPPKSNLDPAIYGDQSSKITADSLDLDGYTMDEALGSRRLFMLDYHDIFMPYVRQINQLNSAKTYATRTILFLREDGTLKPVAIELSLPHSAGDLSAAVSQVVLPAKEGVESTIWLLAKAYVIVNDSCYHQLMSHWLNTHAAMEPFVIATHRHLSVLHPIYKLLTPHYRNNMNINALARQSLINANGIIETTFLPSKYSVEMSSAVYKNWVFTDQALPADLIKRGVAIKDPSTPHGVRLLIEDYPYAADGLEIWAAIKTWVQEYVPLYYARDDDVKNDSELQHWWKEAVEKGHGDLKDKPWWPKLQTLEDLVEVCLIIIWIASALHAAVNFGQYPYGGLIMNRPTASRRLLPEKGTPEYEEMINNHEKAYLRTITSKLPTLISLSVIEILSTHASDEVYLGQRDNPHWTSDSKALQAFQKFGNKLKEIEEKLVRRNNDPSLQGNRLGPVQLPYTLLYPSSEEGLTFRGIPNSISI
In words: Inhibitory activity against Soybean type 1 Lipoxygenase (SBLO) was determined.
Consider `CCCCCCCCC1OC1CCCCCCCC(=O)O` (configuration not stated), for which the inhibitory constant (Ki) is greater than 100 µM.
`CCCCCC1OC1CCCCCCCCCCC(=O)O` (configuration not stated) registered a Ki greater than 100 µM.
With `CCCCCC1SC1C/C=C/CCCCCCCC(=O)O` (configuration not stated) the figure was 2 µM; with `CCCCC/C=C/CC1OC1CCCCCCCC(=O)O` (configuration not stated), greater than 100 µM.
Turning to `CCCCCCCCC1SC1CCCCCCCC(=O)O` (configuration not stated), the inhibition constant (Ki) was greater than 100 µM.
As for `CCCCCC1SC1CCCCCCCCCCC(=O)O` (configuration not stated), the inhibition constant Ki is 4 µM.
On to `CCCCC/C=C/CC1SC1CCCCCCCC(=O)O` (configuration not stated), for which the Ki is greater than 100 µM.
